Source: PMC7944402, “Resin-acid derivatives bind to multiple sites on the voltage-sensor domain of the Shaker potassium channel” (The Journal of General Physiology, 2021)
Where “and” joins values, the source holds several entries; their conditions need not be identical. Identical values can stand only once.

What was measured:
Assay type in all cases: cell-based
[1] = biological target: T1, WT Shaker KV channel (ShH4IR) (Drosophila melanogaster, UniProt P08510, DEL6-46); test: Two-electrode voltage clamp of Shaker KV channels expressed in Xenopus laevis oocytes: WT
T1 construct: expressed in transfected cells; host or cells: Xenopus laevis oocytes (RNA injection)
Description: (§1) The Shaker H4 channel (GenBank accession no. NM_167595.3; [Kamb et al., 1987]), with removed N-type inactivation due to a Δ6-46 deletion (ShH4IR, in Bluescript II KS(+) plasmid; [Hoshi et al., 1990]), is referred to as the WT Shaker KV channel. […] Therefore, we specifically refer to the two added arginines just outside S4 (M356R/A359R) as the 2R motif. Mutations were introduced with site-directed mutagenesis and verified with sequencing as described previously ([Börjesson et al., 2010]). RNA injection and oocyte handling were performed as before ([Börjesson et al., 2010]; [Ottosson et al., 2015]). All animal experiments were approved by the Linköping’s local Animal Care and Use Committee.
(§2) Electrophysiological experiments were made 1–6 d after RNA injection. K^+ currents were measured with the two-electrode voltage-clamp technique (GeneClamp 500B amplifier; Axon Instruments) as described previously ([Ottosson et al., 2015]; [Silverå Ejneby et al., 2018]). The amplifier’s leak compensation was used, and the currents were low-pass filtered at 5 kHz. The control solution contained (in mM) 88 NaCl, 1 KCl, 15 HEPES, 0.4 CaCl2, and 0.8 MgCl2, and pH was set with NaOH. All experiments were made at room temperature (20°C–23°C). The holding potential was set to −80 mV (or −100 mV if the mutant was not fully closed at −80 mV).
(§3) Stock solutions were stored at −20°C and diluted in control solution just before experiments. The test solution was added to the oocyte bath manually with a syringe. […] To make sure all Wu50 molecules were negatively charged, the pH of the control solution was set to 9.0 before the experiments.
(§4) The conductance, G(V), was calculated as G(V)=I/(V−VK), (1) where I is the steady-state current measured at the end of each test-voltage sweep (100 ms after onset; Clampfit 10.5; Molecular Devices), V is the absolute membrane voltage, and VK is the reversal potential for K^+ ions (set to −80 mV). The conductance was fitted with a Boltzmann equation (GraphPad Prism 5; GraphPad Software, Inc.) GK(V)=GMAX/{1+exp[(V½−V)/s]}, (2) where GMAX is the amplitude (maximal conductance) of the curve, V is the absolute membrane voltage, V1/2 is the midpoint, and s is the slope. The resin-acid–induced G(V) shift was calculated as V1/2 (compound) − V1/2 (control). The relative change in GMAX was calculated as GMAX (compound) / GMAX (control). The concentration dependence for the G(V) shifts was calculated as ΔV= ΔVMAX/(1 +EC50/c), (3) where ΔV is the voltage shift, ΔVMAX is the voltage shift at saturating concentration, c is the concentration of the tested compound, and EC50 is the concentration at which half-maximum response occurs.

[2] = biological target: T2, Shaker KV channel with the 2R motif (M356R/A359R) (Drosophila melanogaster, UniProt P08510, A359R/DEL6-46/M356R); test: Two-electrode voltage clamp in Xenopus oocytes: 2R motif channel
T2 construct: expressed in transfected cells; host or cells: Xenopus laevis oocytes (RNA injection)
Description: as §1, §2, §3, §4

[3] = biological target: T3, Shaker KV channel M356R/A359R/W454A (Drosophila melanogaster, UniProt P08510, A359R/DEL6-46/M356R/W454A); test: Two-electrode voltage clamp in Xenopus oocytes: 2R motif/W454A
T3 construct: expressed in transfected cells; host or cells: Xenopus laevis oocytes (RNA injection)
Description: (§5) The Shaker H4 channel (GenBank accession no. NM_167595.3; [Kamb et al., 1987]), with removed N-type inactivation due to a Δ6-46 deletion (ShH4IR, in Bluescript II KS(+) plasmid; [Hoshi et al., 1990]), is referred to as the WT Shaker KV channel. Addition of two positively charged arginines (M356R/A359R) at the extracellular top of the voltage sensor increases the effect of charged lipophilic compounds ([Ottosson et al., 2014], [2015], [2017]). […] However, for the resin-acid derivatives studied in the present investigation, R362 reduced the effect. Therefore, we specifically refer to the two added arginines just outside S4 (M356R/A359R) as the 2R motif. Mutations were introduced with site-directed mutagenesis and verified with sequencing as described previously ([Börjesson et al., 2010]). RNA injection and oocyte handling were performed as before ([Börjesson et al., 2010]; [Ottosson et al., 2015]). All animal experiments were approved by the Linköping’s local Animal Care and Use Committee.
as §2
Stock solutions were stored at −20°C and diluted in control solution just before experiments. The test solution was added to the oocyte bath manually with a syringe. […] To make sure all Wu50 molecules were negatively charged, the pH of the control solution was set to 9.0 before the experiments. This pH change had only small effects on channel kinetics and the G(V) relation.
as §4, with “The conductance was fitted with a Boltzmann equation (GraphPad Prism 5; GraphPad Software, Inc.) GK(V)=GMAX/{1+exp[(V½−V)/s]}, (2) where GMAX is the amplitude (maximal conductance) of the curve, V is the absolute membrane voltage, V1/2 is the midpoint, and s is the slope.” left out

[4] = biological target: T4, Shaker KV channel W454A (Drosophila melanogaster, UniProt P08510, DEL6-46/W454A); test: Two-electrode voltage clamp in Xenopus oocytes: W454A; details: 100 μM, pH 9.0, W454A
T4 construct: expressed in transfected cells; host or cells: Xenopus laevis oocytes (RNA injection)
Description: as §5
(§6) Electrophysiological experiments were made 1–6 d after RNA injection. K^+ currents were measured with the two-electrode voltage-clamp technique (GeneClamp 500B amplifier; Axon Instruments) as described previously ([Ottosson et al., 2015]; [Silverå Ejneby et al., 2018]). […]
as §4, with “The conductance was fitted with a Boltzmann equation (GraphPad Prism 5; GraphPad Software, Inc.) GK(V)=GMAX/{1+exp[(V½−V)/s]}, (2) where GMAX is the amplitude (maximal conductance) of the curve, V is the absolute membrane voltage, V1/2 is the midpoint, and s is the slope.” left out

[5] = biological target: T5, Shaker KV channel R362Q (Drosophila melanogaster, UniProt P08510, DEL6-46/R362Q); test: Two-electrode voltage clamp in Xenopus oocytes: R362Q; details: 100 μM, pH 9.0, R362Q
T5 construct: expressed in transfected cells; host or cells: Xenopus laevis oocytes (RNA injection)
Description: as §5, §6
as §4, with “The conductance was fitted with a Boltzmann equation (GraphPad Prism 5; GraphPad Software, Inc.) GK(V)=GMAX/{1+exp[(V½−V)/s]}, (2) where GMAX is the amplitude (maximal conductance) of the curve, V is the absolute membrane voltage, V1/2 is the midpoint, and s is the slope.” left out

[6] = biological target: T6, Shaker KV channel R362Q/W454A/F416A (Drosophila melanogaster, UniProt P08510, DEL6-46/F416A/R362Q/W454A); test: Two-electrode voltage clamp in Xenopus oocytes: R362Q/W454A/F416A; details: 100 μM
T6 construct: expressed in transfected cells; host or cells: Xenopus laevis oocytes (RNA injection)
Description: as §5, §6
as §4, with “The conductance was fitted with a Boltzmann equation (GraphPad Prism 5; GraphPad Software, Inc.) GK(V)=GMAX/{1+exp[(V½−V)/s]}, (2) where GMAX is the amplitude (maximal conductance) of the curve, V is the absolute membrane voltage, V1/2 is the midpoint, and s is the slope.” left out

[7] = biological target: T7, Shaker KV channel R362Q/R365Q (Drosophila melanogaster, UniProt P08510, DEL6-46/R362Q/R365Q); test: Two-electrode voltage clamp in Xenopus oocytes: R362Q/R365Q; details: 100 μM, pH 9.0, R362Q/R365Q
T7 construct: expressed in transfected cells; host or cells: Xenopus laevis oocytes (RNA injection)
Description: as §5, §6
as §4, with “The conductance was fitted with a Boltzmann equation (GraphPad Prism 5; GraphPad Software, Inc.) GK(V)=GMAX/{1+exp[(V½−V)/s]}, (2) where GMAX is the amplitude (maximal conductance) of the curve, V is the absolute membrane voltage, V1/2 is the midpoint, and s is the slope.” left out

[8] = biological target: T8, Shaker KV channel R362Q/R365Q/W454A (Drosophila melanogaster, UniProt P08510, DEL6-46/R362Q/R365Q/W454A); test: Two-electrode voltage clamp in Xenopus oocytes: R362Q/R365Q/W454A; details: 100 μM, pH 9.0, R362Q/R365Q/W454A
T8 construct: expressed in transfected cells; host or cells: Xenopus laevis oocytes (RNA injection)
Description: as §5, with “Mutations were introduced with site-directed mutagenesis and verified with sequencing as described previously ([Börjesson et al., 2010]). RNA injection and oocyte handling were performed as before ([Börjesson et al., 2010]; [Ottosson et al., 2015]). All animal experiments were approved by the Linköping’s local Animal Care and Use Committee.” left out
as §6
The conductance, G(V), was calculated as G(V)=I/(V−VK), (1) where I is the steady-state current measured at the end of each test-voltage sweep (100 ms after onset; Clampfit 10.5; Molecular Devices), V is the absolute membrane voltage, and VK is the reversal potential for K^+ ions (set to −80 mV). […] The resin-acid–induced G(V) shift was calculated as V1/2 (compound) − V1/2 (control). The relative change in GMAX was calculated as GMAX (compound) / GMAX (control). […]

[9] = 100 μM, pH 9.0, M356R/A359R (=2R)
[10] = 100 μM, pH 9.0, M356R/A359R/W454A

T4 sequence (P08510 other isoform, or with tags, fused parts or gaps DEL6-46/W454A): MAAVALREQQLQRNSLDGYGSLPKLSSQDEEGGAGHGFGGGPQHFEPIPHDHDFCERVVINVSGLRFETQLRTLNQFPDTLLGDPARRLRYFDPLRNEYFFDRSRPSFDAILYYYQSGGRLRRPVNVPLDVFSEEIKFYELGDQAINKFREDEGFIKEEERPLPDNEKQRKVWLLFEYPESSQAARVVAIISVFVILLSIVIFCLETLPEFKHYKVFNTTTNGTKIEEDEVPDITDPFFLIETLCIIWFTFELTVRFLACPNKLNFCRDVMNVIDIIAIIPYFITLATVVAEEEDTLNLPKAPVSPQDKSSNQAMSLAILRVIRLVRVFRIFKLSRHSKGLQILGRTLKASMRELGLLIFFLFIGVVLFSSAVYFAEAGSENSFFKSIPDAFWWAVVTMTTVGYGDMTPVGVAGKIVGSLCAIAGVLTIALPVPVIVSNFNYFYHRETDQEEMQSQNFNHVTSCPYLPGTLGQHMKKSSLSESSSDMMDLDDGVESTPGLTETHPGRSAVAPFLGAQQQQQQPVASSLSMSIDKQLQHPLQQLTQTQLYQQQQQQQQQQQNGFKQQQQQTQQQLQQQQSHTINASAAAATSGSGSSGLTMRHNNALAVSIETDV
T2 sequence (P08510 other isoform, or with tags, fused parts or gaps DEL6-46/M356R/A359R): as the sequence (P08510 other isoform, or with tags, fused parts or gaps DEL6-46/W454A) above, with M315R, A318R, A413W counted along it
T5 sequence (P08510 other isoform, or with tags, fused parts or gaps DEL6-46/R362Q): as the sequence (P08510 other isoform, or with tags, fused parts or gaps DEL6-46/W454A) above, with R321Q, A413W counted along it
T7 sequence (P08510 other isoform, or with tags, fused parts or gaps DEL6-46/R362Q/R365Q): as the sequence (P08510 other isoform, or with tags, fused parts or gaps DEL6-46/W454A) above, with R321Q, R324Q, A413W counted along it
T8 sequence (P08510 with tags, fused parts or gaps DEL6-46/R362Q/R365Q/W454A): as the sequence (P08510 other isoform, or with tags, fused parts or gaps DEL6-46/W454A) above, with R321Q, R324Q counted along it
T1 sequence (P08510 other isoform, or with tags, fused parts or gaps DEL6-46): as the sequence (P08510 other isoform, or with tags, fused parts or gaps DEL6-46/W454A) above, with A413W counted along it
T3 sequence (P08510 with tags, fused parts or gaps DEL6-46/M356R/A359R/W454A): as the sequence (P08510 other isoform, or with tags, fused parts or gaps DEL6-46/W454A) above, with M315R, A318R counted along it
T6 sequence (P08510 other isoform, or with tags, fused parts or gaps DEL6-46/R362Q/F416A/W454A): as the sequence (P08510 other isoform, or with tags, fused parts or gaps DEL6-46/W454A) above, with R321Q, F375A counted along it

## C[C@@]1(C(=O)O)CCC[C@]2(C)c3cc(Cl)c(Cl)c(Cl)c3CC[C@@H]12 [Wu50]
[1]; 100 μM, pH 9.0, WT
  ΔVG(V) (G(V) shift): −25.5 ± 1.4 mV and -25.5 mV
[1]; 100 μM, pH 9.0, WT, GMAX (compound)/GMAX (control)
  GMAX (rel.): 1.36 rel.
[1]; WT, pH 9.0, concentration-response (Eq. 3), read-out: EC50 of the G(V) shift (apparent affinity)
  EC50: 29.1 ± 3.5 µM
[2]; 100 µM, pH 9.0, 2R motif
  G(V) shift, representative recording (Fig. 1 D): −40.7 mV
[2]; [9]
  GMAX (rel.): 1.58 rel.
  ΔVG(V) (G(V) shift): −40.0 ± 2.7 mV and -40.0 mV
[2]; 2R motif versus WT, Wu50 pH 9.0, Wu161 and Wu181 pH 7.4
  Increase of the maximum G(V) shift by the 2R motif: 57%
[2]; 2R motif, pH 9.0, concentration-response (Eq. 3)
  ΔVMAX (maximum G(V) shift): −56.5 ± 2.6 mV
[2]; 2R motif, pH 9.0, concentration-response (Eq. 3), read-out: EC50 of the G(V) shift (apparent affinity)
  EC50: 30 ± 5 µM
[2]; magnitude depending on the background mutations, 100 μM, pH 9.0
  Increase of the G(V) shift by the 2R motif, in the negative direction: 4–32 mV
[3]
  EC50: 27.9 ± 9.2 µM
[3]; [10]
  GMAX (rel.): 1.28 rel.
  ΔVG(V) (G(V) shift): -39.6 mV
[3]; 2R motif/W454A, pH 9.0, concentration-response
  ΔVMAX (maximum G(V) shift): −62.3 ± 6.5 mV
[4]
  GMAX (rel.): 0.56 rel.
  ΔVG(V) (G(V) shift): −8.1 ± 0.4 mV and -8.1 mV
[5]
  GMAX (rel.): 1.25 rel.
  ΔVG(V) (G(V) shift): −49.6 ± 1.2 mV and -49.6 mV
[6]; pH 9.0, R362Q/W454A/F416A
  GMAX (rel.): 0.17 rel.
[6]; R362Q/W454A/F416A, pH 9.0
  Reduction of GMAX: 83%
[7]
  GMAX (rel.): 0.55 rel.
  ΔVG(V) (G(V) shift): −25.5 ± 4.6 mV and -25.5 mV
[8]
  GMAX (rel.): 0.57 rel.
  ΔVG(V) (G(V) shift): −24.7 ± 3.0 mV and -24.7 mV
